For data set [1] the following is noted: Crystal; DTA.
The nature of data set [2]: Molar enthalpy of transition or fusion. Particulars: Crystal; DSC.

Each structure is given as a SMILES string. Numbers after ± are expanded uncertainties.

Consider `CC(=O)S[C@@H]1CC2=CC(=O)CC[C@]2(C)[C@H]2CC[C@@]3(C)[C@@H](CC[C@@]34CCC(=O)O4)[C@H]12` [spironolactone], for which the Normal melting temperature in data set [1] was 208.42 ± 1.1 °C. The “Molar enthalpy of transition or fusion” value in data set [2] is 4.96 ± 0.311 kcal/mol.

The values are drawn from the NIST ThermoML archive (doi:10.1016/j.jct.2014.07.011).
